The target of series [1] is Toll-like receptor 4 (TLR4) (Homo sapiens, UniProt O00206+Q9Y6Y9). The following applies: cited from earlier work.
A further series has as its system neuropathic pain. The following applies: animal models; cited from earlier work.
The test system of a further series is opioid receptors. Conditions: cited from earlier work.
The next series concerns neuropathic back pain. Kind of series: Naltrexone and clonidine alone and in combination in a human subject: pain treatment effect, weight to weight synergy. Type of series: in vivo. The following applies: one hour post-dose, naltrexone 4.5 mg alone, clonidine 0.3 mg alone, combinations with naltrexone 2.25 mg. As for the experimental part: (§1) Naltrexone and clonidine were evaluated alone and in combination on a human subject with the purpose of finding whether or not a combination of the two compounds offers synergistic advantage. Two aspects were evaluated for synergy: one aspect was pain treatment effect comparing the amounts used weight to weight, and the other aspect was an assessment of synergy of side effects.
(§2) The components of the combination were administered to a subject in the following manner: naltrexone 4.5 mg was given in the morning. The clonidine dose was divided into two doses, a dose of 0.1 mg in the morning and a dose of 0.2 mg at bedtime. […] The pain treatment effect of naltrexone and clonidine was evaluated after one hour post-dose.
To determine synergy, the amounts of naltrexone and clonidine administered alone were compared to the combination combined amounts.

The subject of the next series is trigeminal neuralgia. The series can be described thus: Case study trigeminal neuralgia, open label, pain intensity scores and percent relief (baseline days 1-6, study drug days 7-30). The class given is in vivo, human. The following applies: from pain level 9. The text has this:
Trigeminal neuralgia, also known as suicide disease, is a neuropathic disorder characterized by episodes of intense pain in the face, originating from the trigeminal nerve. It has been described as among the most painful conditions known to mankind. This case study is of a person with a three month history of trigeminal neuralgia. […] The pain involved the right check, upper jaw and the upper front teeth. The pain was constant and described as burning, stinging and aching. It was aggravated by eating, brushing teeth, flossing, chewing and talking. The subject's pain level on average was 5, but it would peak to 9. Ibuprofen brought the pain level from 9 to 7 for two hours, vicoden brought their pain level from 9 to 5, but relief lasted only three to four hours. The subject entered open label study for 3 weeks. […].

The conditions of series [2]: 0.5 mg, 42 IBS patients; cited from earlier work.
For series [3] the following is noted: full dose; cited from earlier work.
A short description of series [4]: Naltrexone and clonidine alone and in combination in a human subject: side effects over 24 hours. The following applies: naltrexone 4.5 mg alone, clonidine 0.3 mg alone, combinations with naltrexone 2.25 mg. How it is done: as §1, §2
The conditions of series [5]: cited from earlier work.
The next series has as its system leg pain. The series can be described thus: Case study leg pain caused by L-5 radiculopathy. Type of series: in vivo, human.

Read-outs that look alike come from different tables or passages of the source.

Sequence of Toll-like receptor 4 (TLR4) (O00206 24-839, species assumed): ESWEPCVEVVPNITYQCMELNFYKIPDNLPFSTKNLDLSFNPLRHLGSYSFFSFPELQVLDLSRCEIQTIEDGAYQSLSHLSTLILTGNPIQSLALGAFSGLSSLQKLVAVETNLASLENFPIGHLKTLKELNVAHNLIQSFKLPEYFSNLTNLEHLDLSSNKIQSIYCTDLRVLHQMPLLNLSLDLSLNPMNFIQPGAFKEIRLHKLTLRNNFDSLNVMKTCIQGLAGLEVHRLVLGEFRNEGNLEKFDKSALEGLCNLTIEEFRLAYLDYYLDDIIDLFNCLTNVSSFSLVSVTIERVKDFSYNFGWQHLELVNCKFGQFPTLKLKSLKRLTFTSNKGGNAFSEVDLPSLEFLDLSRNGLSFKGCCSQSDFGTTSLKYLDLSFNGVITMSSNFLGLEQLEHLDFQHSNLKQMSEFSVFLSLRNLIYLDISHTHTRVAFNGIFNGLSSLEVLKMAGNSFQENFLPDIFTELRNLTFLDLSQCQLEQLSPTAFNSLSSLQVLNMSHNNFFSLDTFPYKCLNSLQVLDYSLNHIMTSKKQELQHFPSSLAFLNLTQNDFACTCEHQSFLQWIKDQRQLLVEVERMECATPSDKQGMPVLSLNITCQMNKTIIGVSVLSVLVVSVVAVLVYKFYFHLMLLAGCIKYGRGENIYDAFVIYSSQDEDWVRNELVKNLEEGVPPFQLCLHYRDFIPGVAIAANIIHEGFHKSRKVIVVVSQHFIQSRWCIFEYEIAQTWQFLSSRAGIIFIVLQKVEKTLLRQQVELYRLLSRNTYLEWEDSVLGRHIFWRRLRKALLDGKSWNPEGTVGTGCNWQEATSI
Sequence of Toll-like receptor 4 (TLR4) (Q9Y6Y9 17-160 limits assumed, species assumed): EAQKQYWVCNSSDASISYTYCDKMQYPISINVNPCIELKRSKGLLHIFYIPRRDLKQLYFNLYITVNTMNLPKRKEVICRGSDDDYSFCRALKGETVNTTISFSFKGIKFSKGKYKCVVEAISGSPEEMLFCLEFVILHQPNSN

`C=CCN1CC[C@]23c4c5ccc(O)c4O[C@H]2C(=O)CC[C@]3(O)[C@H]1C5` [(+)-naloxone]: the “action at TLR4” value in series [1] was “selective antagonists of TLR4”. The “treating symptoms of neuropathic pain” value in the series on neuropathic pain is listed as “effective”.
For `O=C1CC[C@]2(O)[C@@H]3Cc4ccc(O)c5c4[C@]2(CCN3CC2CC2)[C@@H]1O5` [(+)-naltrexone], in the series with opioid receptors, the “affinity for opioid receptors” value was “lack affinity”. Besides, in series [1], the “action at TLR4” value was “selective antagonists of TLR4”. The “treating symptoms of neuropathic pain” value in the series on neuropathic pain is “effective”.
`Clc1cccc(Cl)c1N=C1NCCN1` [Clonidine, clonidine]: the “% reversal of pain” value in the series with neuropathic back pain turned out to be 50%.
With `CC(C)Cc1ccc(C(C)C(=O)O)cc1` (centres unmarked) [Ibuprofen], the “pain level with previous medication” value in the series on trigeminal neuralgia was 7.
On to `O=C1CC[C@@]2(O)[C@H]3Cc4ccc(O)c5c4[C@@]2(CCN3CC2CC2)[C@H]1O5` [Naltrexone, naltrexone], for which the “% reversal of pain” value in the series on neuropathic back pain is listed as 100%. Moreover, the side effects entry in [2] was “no side effects were reported”. Also, the “incidence of nervousness, insomnia, and anxiety” value in series [3] is recorded as “single-digit incidence”. In series [1], the “action at TLR4” value was “antagonists for TLR4”. In addition, the side effects result in series [4] was “high incidence of alertness, insomnia and anxiety”. Also, in series [5] (2.5 mg daily), the Anxiety frequency was 11.9%, the Diarrhea frequency was 6.0% and the Muscle pain frequency is on record as 4.5%. In series [5] (5.0 mg daily), the Anxiety frequency is recorded as 21.7%, the Diarrhea frequency was 13.0% and the Muscle pain frequency is reported as 15.2%. Besides, the “side effects that were short-lived” value in series [5] (24 patients, of those with side effects) is recorded as 32.4%. In series [5] (121 patients), the “Abdominal pain, Percentage of Participants” value is listed as 11.6%; the “Anorexia, Percentage of Participants” value is on record as 8.3%; the “Anxiety, Percentage of Participants” value is listed as 15.7%; the “Diarrhea, Percentage of Participants” value is given as 8.3%. In series [5] (121 patients), the “Dizziness, Percentage of Participants” value is on record as 10.7%; the “Drowsiness, Percentage of Participants” value is reported as 11.6%; the “Headache, Percentage of Participants” value is 11.6%; the “Insomnia, Percentage of Participants” value is on record as 8.3%. In series [5] (121 patients), the “Mood change, Percentage of Participants” value is given as 3.3%; the “Muscle pain, Percentage of Participants” value was 8.3%; the “Nausea, Percentage of Participants” value is on record as 12.4%; the “No side effects, Percentage of Participants” value was 38.8%. Besides, in [5] (121 patients), the “Terminated Naltrexone because of side effects” value is on record as 16.5%; the “Trouble concentrating, Percentage of Participants” value was 1.7%; the “Vivid dreams, Percentage of Participants” value is listed as 5.0%. Besides, the “Total side effects, Percentage of Participants” value (from here on “Total side effects, Percentage”) in [5] (121 patients, listed as LDN) is 61%. Further, the “Total side effects, Percentage” value in series [5] (121 patients, listed as Low Dose Naltrexone) is given as 61.2%. The “Total side effects, Percentage” value in [5] (121 patients, listed as low dose Naltrexone) is 61/2. The “incidence of nervousness, insomnia, and anxiety” value in [5] (low dose) is “double digit incidence”.
On to `CN1CC[C@]23c4c5ccc(O)c4O[C@H]2[C@@H](O)C=C[C@H]3[C@H]1C5` [morphine], for which the “action at TLR4” value in series [1] is “TLR4 agonists”.
Take `C=CCN1CC[C@]23c4c5ccc(O)c4O[C@H]2C(=O)CC[C@@]3(O)[C@H]1C5` [naloxone]: the “action at TLR4” value in [1] was “antagonists for TLR4”.
For the compound Etanercept, in the series with leg pain (three perispinal injections), the “duration of relief from previous treatment” value is on record as “two” and the “relief from previous treatment” value came out at 10%.
Regarding botulinum toxin, in the series on leg pain (in vivo), the “duration of relief from previous treatment” value is reported as “two” and the “relief from previous treatment” value is given as 10%.

Values taken from patent US20130310412A1, “Combinations of an Opioid/TLR4 Antagonist and a Direct-Acting Alpha-2 Adrenergic Agonist for Use in the Treatment of Pain” (priority 2010, published 2013).
